Laboratory results as given in publication PMC3914206.

Tests used:
Assay type in all cases: binding
[1] = biological target: T1, panel of 442 kinases (Homo sapiens, UniProt P22694); conditions: Compound Concentration 10 µM
T1 construct: purchased KINOMEscan
Source text: (§1) We assessed the selectivity of members of this scaffold using the KINOMEscan methodology across a near comprehensive panel of 442 kinases [[18,27]].

[2] = biological target: T2, panel of 442 kinases (Homo sapiens, UniProt P23458); conditions: Compound Concentration 10 µM
T2 construct: purchased KINOMEscan
Source text: as §1

[3] = biological target: T3, panel of 442 kinases (Homo sapiens, UniProt Q9UEW8); conditions: kinase STK39; compound concentration 10 µM
T3 construct: purchased KINOMEscan
Source text: as §1

[4] = biological target: T4, panel of 442 kinases (Homo sapiens, UniProt Q9Y463); conditions: Compound Concentration 10 µM
T4 construct: purchased KINOMEscan
Source text: as §1

T4 sequence (Q9Y463 whole entry): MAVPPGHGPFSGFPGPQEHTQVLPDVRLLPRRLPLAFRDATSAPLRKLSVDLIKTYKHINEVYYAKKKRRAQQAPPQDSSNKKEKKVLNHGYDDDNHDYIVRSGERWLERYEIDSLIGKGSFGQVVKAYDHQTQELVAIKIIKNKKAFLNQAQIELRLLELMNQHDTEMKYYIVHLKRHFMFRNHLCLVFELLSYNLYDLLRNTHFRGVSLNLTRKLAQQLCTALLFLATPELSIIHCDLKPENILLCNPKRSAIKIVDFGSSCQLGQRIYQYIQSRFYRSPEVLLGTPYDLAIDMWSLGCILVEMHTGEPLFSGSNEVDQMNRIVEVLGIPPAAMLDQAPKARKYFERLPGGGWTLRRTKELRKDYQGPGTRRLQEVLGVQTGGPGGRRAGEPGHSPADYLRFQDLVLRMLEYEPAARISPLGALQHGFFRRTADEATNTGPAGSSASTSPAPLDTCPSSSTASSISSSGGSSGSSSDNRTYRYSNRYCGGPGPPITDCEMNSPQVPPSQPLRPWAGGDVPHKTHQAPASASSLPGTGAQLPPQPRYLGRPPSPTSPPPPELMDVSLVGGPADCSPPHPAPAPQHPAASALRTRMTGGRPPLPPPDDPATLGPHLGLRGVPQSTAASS
T2 sequence (P23458 whole entry): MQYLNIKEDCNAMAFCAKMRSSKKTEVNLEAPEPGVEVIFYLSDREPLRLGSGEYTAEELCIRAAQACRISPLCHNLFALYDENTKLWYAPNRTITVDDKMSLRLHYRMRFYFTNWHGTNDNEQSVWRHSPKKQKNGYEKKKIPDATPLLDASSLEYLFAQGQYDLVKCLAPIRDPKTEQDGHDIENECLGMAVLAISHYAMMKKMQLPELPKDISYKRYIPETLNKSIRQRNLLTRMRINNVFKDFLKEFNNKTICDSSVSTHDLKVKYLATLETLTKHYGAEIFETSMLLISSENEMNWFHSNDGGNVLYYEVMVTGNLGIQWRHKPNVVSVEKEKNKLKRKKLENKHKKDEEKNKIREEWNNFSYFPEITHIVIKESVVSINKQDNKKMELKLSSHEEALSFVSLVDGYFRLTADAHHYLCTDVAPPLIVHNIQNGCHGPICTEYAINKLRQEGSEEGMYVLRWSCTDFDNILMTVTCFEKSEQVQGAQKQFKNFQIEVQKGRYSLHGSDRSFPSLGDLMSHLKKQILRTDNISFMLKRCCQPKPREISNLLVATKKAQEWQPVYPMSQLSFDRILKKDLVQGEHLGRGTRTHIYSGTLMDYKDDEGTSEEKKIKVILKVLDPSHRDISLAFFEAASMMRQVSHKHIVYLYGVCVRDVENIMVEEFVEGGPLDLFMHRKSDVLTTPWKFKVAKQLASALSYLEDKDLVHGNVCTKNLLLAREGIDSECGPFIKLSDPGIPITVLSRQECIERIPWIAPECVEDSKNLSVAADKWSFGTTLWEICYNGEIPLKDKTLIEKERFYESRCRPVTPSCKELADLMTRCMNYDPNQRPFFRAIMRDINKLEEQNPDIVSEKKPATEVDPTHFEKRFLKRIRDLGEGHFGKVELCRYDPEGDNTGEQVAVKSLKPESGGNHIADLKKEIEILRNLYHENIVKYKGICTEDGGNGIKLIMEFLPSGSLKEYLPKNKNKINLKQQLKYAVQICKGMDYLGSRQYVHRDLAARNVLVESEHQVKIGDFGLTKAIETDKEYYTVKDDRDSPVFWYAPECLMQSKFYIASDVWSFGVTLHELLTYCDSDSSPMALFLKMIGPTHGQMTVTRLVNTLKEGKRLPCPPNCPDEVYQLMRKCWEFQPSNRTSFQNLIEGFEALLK

Compound: COc1cc(C(=O)N2CCC(N3CCN(C)CC3)CC2)ccc1Nc1ncc2c(n1)N(C)c1ccccc1C(=O)N2C [15 (LRRK2-IN-1)]
- KINOMEscan: PKAC-beta [1]: 100
- KINOMEscan: JAK1(JH1domain-catalytic) [2]: 100
- KINOMEscan: JAK1(JH2domain-pseudokinase) [2]: 92
- % Ctrl, STK39 [3]: 39 % Ctrl
- KINOMEscan: DYRK1B [4]: 94

Compound: CCOc1cc(C(=O)N2CCC(N3CCN(C)CC3)CC2)ccc1Nc1ncc2c(n1)N(C1CCCC1)c1ccccc1C(=O)N2C [Compound 26]
- KINOMEscan: PKAC-beta [1]: 100
- KINOMEscan: JAK1(JH1domain-catalytic) [2]: 100
- KINOMEscan: JAK1(JH2domain-pseudokinase) [2]: 98
- % Ctrl, STK39 [3]: 100 % Ctrl
- KINOMEscan: DYRK1B [4]: 71

Compound: COc1cc(C(=O)N2CCC(N3CCN(C)CC3)CC2)ccc1Nc1ncc2c(n1)N1CCc3cccc(c31)C(=O)N2C [Compound 24]
- KINOMEscan: JAK1(JH2domain-pseudokinase) [2]: 62
- % Ctrl, STK39 [3]: 100 % Ctrl

Compound: COc1cc(C(=O)N2CCC(N3CCN(C)CC3)CC2)ccc1Nc1ncc2c(n1)N(C1CCCC1)c1ccccc1C(=O)N2C [Compound 25, 11-cyclopentyl-2-((2-methoxy-4-(4-(4-methylpiperazin-1-yl)piperidine-1-carbonyl)phenyl)amino)-5-methyl-5H-benzo[e]pyrimido[5,4-b][1,4]diazepin-6(11H)-one]
- KINOMEscan: PKAC-beta [1]: 100
- KINOMEscan: JAK1(JH1domain-catalytic) [2]: 100
- KINOMEscan: JAK1(JH2domain-pseudokinase) [2]: 100
- % Ctrl, STK39 [3]: 100 % Ctrl
- KINOMEscan: DYRK1B [4]: 69
